According to US7776892B2, “Fungicidal composition comprising a pyridylethylbenzamide derivative and a compound capable of inhibiting the spores germination or mycelium growth by acting on different metabolic routes” (Bayer Cropscience S.A., priority 2004, dated 2010):
Where a name gives a salt, the structure may show the parent alone.

How the values were obtained:
Type in all cases: in vivo
Botrytis cinerea [1] = test: Example 10: efficacy against Botrytis cinerea on gherkin plants, Compound 1 and fosetyl-Al; details: grading 5 to 7 days after contamination
Protocol: (§1) The formulated compounds are diluted with water to obtain the desired active material concentration.
(§2) Gherkin plants (Petit vert de Paris variety) in starter cups, sown on a 50/50 peat soil-pozzolana substrate and grown at 18-20° C., are treated at the cotyledon Z11 stage by spraying with the aqueous suspension described above. Plants, used as controls, are treated with an aqueous solution not containing the active material.
(§3) After 24 hours, the plants are contaminated by depositing drops of an aqueous suspension of Botrytis cinerea spores (150,000 spores per ml) on upper surface of the leaves. The spores are collected from a 15-day-old culture and are suspended in a nutrient solution composed of: • 20 g/L of gelatine • 50 g/L of cane sugar • 2 g/L of NH4NO3 • 1 g/L of KH2PO4
(§4) The contaminated gherkin plants are settled for 5/7 days in a climatic room at 15-11° C. (day/night) and at 80% relative humidity. Grading (% of efficacy) is carried out 5 to 7 days after the contamination, in comparison with the control plants.

Peronospora parasitica = test: Example 12: efficacy against Peronospora parasitica on cabbage plants, Compound 1 and Compound A; details: Hyaloperonospora parasitica, 120 h, grading 5 days after contamination
Protocol: The active ingredient tested is prepared by potter homogenisation in a concentrated suspension type formulation at 100 g/l. This suspension is then diluted with water to obtain the desired active material concentration.
Cabbage plants (Eminence variety) in starter cups, sown on a 50/50 peat soil-pozzolana substrate and grown at 18-20° C., are treated at the cotyledon stage by spraying with the aqueous suspension described above.
(§5) Plants, used as controls, are treated with an aqueous solution not containing the active material.
After 24 hours, the plants are contaminated by spraying them with an aqueous suspension of Peronospora parasitica spores (50,000 spores per ml). The spores are collected from infected plant.
The contaminated cabbage plants are incubated for 5 days at 20° C., under a humid atmosphere.
Grading is carried out 5 days after the contamination, in comparison with the control plants.

Puccinia recondita = test: Example 3: efficacy against Puccinia recondita on wheat plants, Compound 1 and captan; details: 240 h, grading 10 days after contamination
Protocol: (§6) The active ingredients tested are prepared by potter homogenisation in a mixture of acetone/tween/water. This suspension is then diluted with water to obtain the desired active material concentration.
Wheat plants (Scipion variety) in starter cups, sown on 50/50 peat soil-pozzolana substrate and grown at 12° C., are treated at the 1-leaf stage (10 cm tall) by spraying with the aqueous suspension described above.
as §5
After 24 hours, the plants are contaminated by spraying the leaves with an aqueous suspension of Puccinia recondita spores (100,000 spores per ml). The spores are collected from a 10-day-old contaminated wheat and are suspended in water containing 2.5 ml/l of tween 80 10%. The contaminated wheat plants are incubated for 24 hours at 20° C. and at 100% relative humidity, and then for 10 days at 20° C. and at 70% relative humidity. Grading is carried out 10 days after the contamination, in comparison with the control plants.

Botrytis cinerea [2] = test: Example 6: efficacy against Botrytis cinerea on gherkin plants, Compound 1 and fludioxonil
Protocol: as §6, §2, §3, §4

Botrytis cinerea [3] = test: Example 8: efficacy against Botrytis cinerea on gherkin plants, Compound 1 and metalaxyl-M; details: grading 5 to 7 days after contamination
Protocol: as §6, §2, §3, §4

Sphaerotheca fuliginea [4] = test: Example 11: efficacy against Sphaerotheca fuliginea on gherkin plants, Compound 1 and tolylfluanid; details: Podosphaera fuliginea, 504 h, grading 21 days after contamination
Protocol: as §1
as §2, with “(Vert petit” for “(Petit vert”, “20° C./23°” for “18-20°”, “2-leaves” for “cotyledon Z11”
After 24 hours, the plants are contaminated by spraying them with an aqueous suspension of Sphaerotheca fuliginea spores (100,000 spores per ml). The spores are collected from a contaminated plants The contaminated gerkhin plants are incubated at about 20° C./25° C. and at 60/70% relative humidity.
(§7) Grading (% of efficacy) is carried out 21 days after the contamination, in comparison with the control plants.

[5] = system: Erysiphe graminis f. sp. tritici; test: Example 14: efficacy against Erysiphe graminis f. sp. tritici on wheat plants, Compound 1 and chlorothalonil; details: Blumeria graminis, grading 7 to 14 days after contamination
Protocol: The formulated compounds are diluted with water to obtain the desired active material concentration
Wheat plants (Audace variety) in starter cups, sown on 50/50 peat soil-pozzolana substrate and grown at 12° C., are treated at the 1-leaf stage (10 cm tall) by spraying with the aqueous suspension described above.
as §5
After 24 hours, the plants are contaminated by dusting them with Erysiphe graminis f. sp. tritici spores, the dusting being carried out using diseased plants.
Grading is carried out 7 to 14 days after the contamination, in comparison with the control plants.

Botrytis cinerea [6] = test: Example 7: efficacy against Botrytis cinerea on gherkin plants, Compound 1 and benalaxyl; details: grading 5 to 7 days after contamination
Protocol: as §6, §2, §3, §4

Botrytis cinerea [7] = test: Example 2: efficacy against Botrytis cinerea on gherkin plants, Compound 1 and propineb; details: grading 5 to 7 days after contamination
Protocol: (§8) Gherkin plants (Petit vert de Paris variety) in starter cups, sown on a 50/50 peat soil-pozzolana substrate and grown at 18-20° C., are treated at the cotyledon Z11 stage by spraying with the aqueous suspension described above.
as §3, §4

Sphaerotheca fuliginea [8] = test: Example 13: efficacy against Sphaerotheca fuliginea on gherkin plants, Compound 1 and iprovalicarb; details: grading 21 days after contamination
Protocol: Gherkin plants (Vert petit de Paris variety) in starter cups, sown on a 50/50 peat soil-pozzolana substrate and grown at 20° C./23° C., are treated at the 2-leaves stage by spraying with the aqueous suspension described above.
After 24 hours, the plants are contaminated by spraying them with an aqueous suspension of Sphaerotheca fuliginea spores (100 000 spores per ml). The spores are collected from a contaminated plants The contaminated gerkhin plants are incubated at about 20° C./25° C. and at 60/70% relative humidity.
as §7

Botrytis cinerea [9] = test: Example 1: efficacy against Botrytis cinerea on gherkin plants, Compound 1 and mancozeb; details: grading 5 to 7 days after contamination
Protocol: as §8, §3, §4

Botrytis cinerea [10] = test: Example 4: efficacy against Botrytis cinerea on gherkin plants, Compound 1 and folpet; details: grading 5 to 7 days after contamination
Protocol: as §2, with “The formulated compounds are diluted with water to obtain the desired active material concentration. Gherkin” for “Gherkin”
as §3, §4

Botrytis cinerea [11] = test: Example 9: efficacy against Botrytis cinerea on gherkin plants, Compound 1 and propamocarb-HCl; details: grading 5 to 7 days after contamination
Protocol: as §8, §3, §4

Botrytis cinerea [12] = test: Example 5: efficacy against Botrytis cinerea on gherkin plants, Compound 1 and iprodione; details: grading 5 to 7 days after contamination
Protocol: as §2, with “The formulated compounds are diluted with water to obtain the desired active material concentration. Gherkin” for “Gherkin”
as §3, §4

With `CCO[PH](=O)O` [Fosetyl-Al, fosetyl-Al, reference compound] the “% Efficacy” value (Botrytis cinerea [1]; 1000 ppm) was 0%.
`O=C(NCc1ncc(C(F)(F)F)cc1Cl)c1c(Cl)cccc1Cl` [Compound A, 2,6-dichloro-N-{[3-chloro-5-(tri-fluoromethyl)-2-pyridinyl]methyl}benzamide, reference compound] gave an Emax at 12.3 ppm (Peronospora parasitica) of 40%.
With `O=C1C2CC=CCC2C(=O)N1SC(Cl)(Cl)Cl` (stereo not drawn) [Captan, captan] the Emax at 125 ppm (Puccinia recondita) was 0%, the Emax at 250 ppm (Puccinia recondita) was 0% and the Emax at 500 ppm (Puccinia recondita; 500 ppm) was 10%.
With `N#Cc1c[nH]cc1-c1cccc2c1OC(F)(F)O2` [Fludioxonil, fludioxonil, reference compound] the Emax at 4.1 ppm (Botrytis cinerea [2]; read-out: % Efficacy) was 0%.
With `COCC(=O)N(c1c(C)cccc1C)[C@H](C)C(=O)OC` [Metalaxyl-M, metalaxyl-M, reference compound] the “% Efficacy” value (Botrytis cinerea [3]; 111 ppm) was 0%.
For `Cc1ccc(N(SC(F)(Cl)Cl)S(=O)(=O)N(C)C)cc1` [Tolylfluanid, tolylfluanid], the Emax at 12.3 ppm (Sphaerotheca fuliginea [4]; 12.3 ppm) was 0% and the Emax at 37 ppm (Sphaerotheca fuliginea [4]; 37 ppm) was 50%.
`N#Cc1c(Cl)c(Cl)c(Cl)c(C#N)c1Cl` [Chlorothalonil, chlorothalonil, reference compound] gave an Emax at 250 g/ha [5] of 0%.
`O=C(NCCc1ncc(C(F)(F)F)cc1Cl)c1ccccc1C(F)(F)F` [Compound 1, N-{2-[3-chloro-5-(trifluoromethyl)-2-pyridinyl]ethyl}-2-trifluoromethylbenzamide] showed an Emax at 111 ppm (Botrytis cinerea [1]; Botrytis cinerea, 111 ppm) of 70%, an Emax at 37 ppm (Botrytis cinerea [6]; 37 ppm) of 78% and an Emax at 4.1 ppm (Sphaerotheca fuliginea [4]; 4.1 ppm) of 69%. The Emax at 37 ppm (Botrytis cinerea [7]; Botrytis cinerea, 37 ppm) was 65%, the Emax at 111 ppm (Botrytis cinerea [7]; Botrytis cinerea, 111 ppm) was 87% and the Emax at 12.3 ppm (Sphaerotheca fuliginea [8]; Podosphaera fuliginea, 504 h, 12.3 ppm) was 65%. It also gave an Emax at 12.3 ppm (Peronospora parasitica) of 0%, an Emax at 12.3 ppm (Botrytis cinerea [2]; 12.3 ppm, gherkin plants, grading 5 to 7 days after contamination) of 0% and an Emax at 37 ppm (Botrytis cinerea [2]; 37 ppm, gherkin plants, grading 5 to 7 days after contamination) of 38%. It also gave an Emax at 37 ppm (Botrytis cinerea [9]; Botrytis cinerea, 37 ppm) of 50%, an Emax at 111 ppm (Botrytis cinerea [9]; Botrytis cinerea, 111 ppm) of 70% and an Emax at 125 ppm (Puccinia recondita) of 0%. The Emax at 250 ppm (Puccinia recondita) was 10%, the Emax at 37 ppm (Botrytis cinerea [10]; 37 ppm) was 50% and the Emax at 111 ppm (Botrytis cinerea [10]; 111 ppm) was 70%. The Emax at 250 g/ha [5] was 30%, the Emax at 500 g/ha ([5]; 500 g/ha) was 60% and the Emax at 37 ppm (Botrytis cinerea [3]; Botrytis cinerea, 37 ppm) was 45%. For the same compound, the Emax at 111 ppm (Botrytis cinerea [11]; 111 ppm) was 70% and the Emax at 37 ppm (Botrytis cinerea [12]) was 0%.
`COC(=O)C(C)N(C(=O)Cc1ccccc1)c1c(C)cccc1C` (stereo not drawn) [Benalaxyl, benalaxyl, reference compound] gave an Emax at 111 ppm (Botrytis cinerea [6]; 111 ppm) of 7%.
For propineb [reference compound], the “% Efficacy” value (Botrytis cinerea [7]; 3000 ppm) was 0%.
`O=C1c2ccccc2C(=O)N1SC(Cl)(Cl)Cl` [Folpet, folpet, reference compound] showed an Emax at 333 ppm (Botrytis cinerea [10]; 333 ppm) of 0% and an Emax at 1000 ppm (Botrytis cinerea [10]; 1000 ppm) of 0%.
For mancozeb [reference compound], the “% Efficacy” value (Botrytis cinerea [9]; 1000 ppm) was 0%.
For `CC(C)NC(=O)N1CC(=O)N(c2cc(Cl)cc(Cl)c2)C1=O` [Iprodione, iprodione], the Emax at 37 ppm (Botrytis cinerea [12]) was 0% and the Emax at 111 ppm (Botrytis cinerea [12]; 111 ppm) was 90%.
Compound `CCCOC(=O)NCCCN(C)C` [Popamocarb-HCl, propamocarb-HCl, reference compound] has an Emax at 1000 ppm (Botrytis cinerea [11]; 1000 ppm) of 0%.
In the case of `Cc1ccc(C(C)NC(=O)[C@@H](NC(=O)OC(C)C)C(C)C)cc1` (stereo partly drawn) [Iprovalicarb, iprovalicarb, reference compound], the “% Efficacy” value (Sphaerotheca fuliginea [8]; 111 ppm) is reported as 50%.
